The test system of one series is Puccinia recondita. Briefly: In vivo preventive test on Puccinia recondita (brown rust on wheat). The note with it: 500 ppm of active ingredient; wheat plants; 12 days after contamination. In outline: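 Wheat plants ("Scipion") at 1-leaf stage, grown at 22° C, were sprayed with compound, then inoculated 24 h later with Puccinia recondita spores (100 000 spores per mL). Efficacy (%) graded 12 days after inoculation relative to solvent-treated controls.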

Another series has as its system Pyrenophora teres. Description: In vivo preventive test on Pyrenophora teres (barley). The note with it: 500 ppm of active ingredient; barley plants; 14 days after contamination. The procedure: In Vivo Preventive Test on Pyrenophora teres (Barley) […] Barley plants (“Plaisant” variety), sown in starter cups on a 50/50 peat soil pozzolana substrate and grown at 22° C., are treated at the 1 leaf stage (10 cm height) by spraying with the active ingredient prepared as described above. Plants, used as controls, are treated with the mixture of acetone/tween/DMSO/water not containing the active material. After 24 hours, the plants are contaminated by spraying the leaves with an aqueous suspension of Pyrenophora teres spores (12 000 spores per mL). The spores are collected from a 12-day-old culture. […] Grading (% of efficacy) is carried out 14 days after the contamination, in comparison with the control plants.

The next series has as its system Uromyces appendiculatus. Briefly: In vivo preventive test on Uromyces appendiculatus (bean rust). The note with it: 500 ppm of active ingredient; bean plants; 11 days after contamination. In outline: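 Saxa bean plants at 2-leaf stage, grown at 24° C., sprayed preventively with compound; 24 h later inoculated with U. appendiculatus spores (150 000 spores per mL). Percent efficacy graded 11 days after inoculation versus solvent-treated controls.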

Another series has as its system Alternaria brassicae. Description: In vivo preventive test on Alternaria brassicae (leaf spot on radish). To be noted: 500 ppm of active ingredient; radish plants; 6 days after contamination. The procedure: In Vivo Preventive Test on Alternaria brassicae (Leaf Spot on Radish) […] Radish plants (“Pernod Clair” variety), sown in starter cups on a 50/50 peat soil pozzolana substrate and grown at 17° C., are treated at the cotyledon stage by spraying with the active ingredient prepared as described above. Plants, used as controls, are treated with the mixture of acetone/tween/DMSO/water not containing the active material. After 24 hours, the plants are contaminated by spraying the cotyledons with an aqueous suspension of Alternaria brassicae spores (50 000 spores per mL). The spores are collected from a 15-day-old culture. The contaminated radish plants are incubated at 20° C. and at 100% relative humidity. Grading (% of efficacy) is carried out 6 days after the contamination, in comparison with the control plants.

Another series concerns Botrytis cinerea. Description: In vivo preventive test on Botrytis cinerea (grey mould). To be noted: 500 ppm of active ingredient; gherkin plants; 4 to 5 days after contamination. The gist of the method: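 Gherkin plants at cotyledon stage Z11 were sprayed with compound, then inoculated 24 h later with Botrytis cinerea spores (50 000 spores per mL in nutrient solution). Plants were kept at 17° C and 90% RH, and percent efficacy versus solvent-treated controls was graded 4 to 5 days after contamination.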

The nature of series [1]: log P by HPLC on a reversed-phase column (C 18), EEC Directive 79/831 Annex V.A8. It counts as physicochemical. To be noted: for logP: HPLC on reversed-phase column (C 18), 40° C., 0.1% aqueous formic acid and acetonitrile, linear gradient 10% to 90% acetonitrile. In outline: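 Reversed-phase C18 HPLC at 40° C with a linear 10% to 90% acetonitrile gradient against 0.1% aqueous formic acid. Log P is read from retention time by linear interpolation between successive unbranched alkan-2-ones (C3–C16) of known log P. UV spectra from 200 to 400 nm, taken at chromatographic peak maxima, give lambda-max.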

The test system of a further series is Septoria tritici. Description: In vivo preventive test on Septoria tritici (wheat). To be noted: 500 ppm of active ingredient; wheat plants; 24 days after contamination. In outline:
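Scipion wheat grown at 22° C, sprayed at 1-leaf stage (10 cm); controls received acetone/tween/DMSO/water without active. Inoculated 24 h later with S. tritici spores (500 000/mL), held 72 h at 18° C, 100% RH, then 21 days at 90% RH. % efficacy vs controls scored 24 days post-inoculation.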

The next series has as its system Sphaerotheca fuliginea. Description: In vivo preventive test on Sphaerotheca fuliginea (powdery mildew on cucurbits). To be noted: 500 ppm of active ingredient, gherkin plants, 12 days after contamination; for pest or weed control at 500 ppm: Podosphaera fuliginea, 288 h, read-out: Efficacy. The gist of the method:
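Gherkin plants ("Vert petit de Paris") grown at 24 °C were sprayed at cotyledon stage Z11; controls received acetone/tween/DMSO/water without active. Inoculation 24 h later by spraying cotyledons with 100 000 spores/mL. Efficacy (%) graded 12 days post-contamination versus controls.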

The test system of series [2] is Blumeria graminis f.sp. hordei. Briefly: In vivo preventive test on Blumeria graminis (barley). The note with it: 500 ppm of active ingredient, evaluated 7 days after inoculation. The procedure: (§1) In Vivo Preventive Test on Blumeria graminis (Barley) [table] To produce a suitable preparation of active compound, 1 part by weight of active compound or active compound combination is mixed with the stated amounts of solvent and emulsifier, and the concentrate is diluted with water to the desired concentration. To test for preventive activity, young plants are sprayed with the preparation of active compound or active compound combination at the stated rate of application. After the spray coating has been dried, the plants are dusted with spores of Blumeria graminis f.sp. hordei.

Another series deals with Leptosphaeria nodorum. Briefly: In vivo preventive test on Leptosphaeria nodorum (wheat). To be noted: 500 ppm of active ingredient, evaluated 8 days after inoculation. The procedure: as §1, with “Leptosphaeria nodorum Test (Wheat)” for “Blumeria graminis (Barley)”, “sprayed” for “dusted”, “a spore suspension” for “spores”, “Leptosphaeria nodorum. The plants remain for 48 hours in an incubation cabinet at approximately 20° C. and a relative atmospheric humidity of approximately 100%.” for “Blumeria graminis f.sp. hordei.”

For the next series, the system named is Venturia inaequalis. Briefly: In vivo preventive test on Venturia inaequalis (apples). The note with it: 100 ppm of active ingredient, evaluated 10 days after inoculation. The procedure: In Vivo Preventive Test on Venturia inaequalis (apples) [table] To produce a suitable preparation of active compound, 1 part by weight of active compound is mixed with the stated amounts of solvent and emulsifier, and the concentrate is diluted with water to the desired concentration. To test for preventive activity, young plants are sprayed with the preparation of active compound at the stated rate of application. After the spray coating has dried on, the plants are inoculated with an aqueous conidia suspension of the causal agent of apple scab (Venturia inaequalis) and then remain for 1 day in an incubation cabinet at approximately 20° C. and a relative atmospheric humidity of 100%. The plants are then placed in a greenhouse at approximately 21° C. and a relative atmospheric humidity of approximately 90%.

The subject of a further series is Pyricularia oryzae. It counts as in vivo. To be noted: 500 ppm of active ingredient; rice plants; 6 days after contamination.

Broadly, the logP is the decadic logarithm of the partition coefficient of the neutral form, usually between octanol and water. Read a high logP as a more lipophilic compound. In the case of `Cn1nc(C(F)F)c(C(=O)N(Cc2ccccc2-c2ccoc2)C2CC2)c1F` [I.29], the Efficacy with Puccinia recondita was 81%; in the series on Pyrenophora teres, 93%; in the series on Uromyces appendiculatus it was 100%; in the series on Alternaria brassicae, 82%; in the series on Botrytis cinerea it was 100%; in the series on Septoria tritici, 96%. Further, the logP in series [1] is reported as 3.23.
On to `CC(C)c1ccc(-c2ccn(C)c2)cc1CN(C(=O)c1c(C(F)F)nn(C)c1F)C1CC1` [I.50], for which the Efficacy turned out to be 100% with Puccinia recondita; 100% in the series with Sphaerotheca fuliginea; 100% in the series on Pyrenophora teres; 99% in the series on Uromyces appendiculatus; 96% in the series on Alternaria brassicae; 99% in the series with Botrytis cinerea. This compound also registered an Efficacy in the series with Septoria tritici of 97%. In addition, the logP in series [1] is on record as 3.99.
As to `Cc1cscc1-c1ccc(Cl)cc1CN(C(=O)c1c(C(F)F)nn(C)c1F)C1CC1` [I.104], the Efficacy in the series with Puccinia recondita worked out at 95%; in the series with Sphaerotheca fuliginea, 100%; in the series on Pyrenophora teres, 70%; with Uromyces appendiculatus, 100%; in the series on Alternaria brassicae, 83%; with Botrytis cinerea it was 93%. Also, in the series on Septoria tritici, the Efficacy amounted to 88%. Moreover, the lipophilicity (logP) in series [1] is on record as 4.34.
As to `Cn1nc(C(F)F)c(C(=O)N(Cc2ccccc2C2(C)CO2)C2CC2)c1F` (centres unmarked) [I.3], the Efficacy amounted to 100% in series [2]; 94% with Puccinia recondita; 100% in the series on Sphaerotheca fuliginea; 92% with Leptosphaeria nodorum; 96% in the series on Venturia inaequalis; 88% in the series on Pyrenophora teres. Also, the Efficacy in the series on Uromyces appendiculatus and in the series with Septoria tritici was 100% in each case. Also, the logP in [1] amounted to 2.68.
For `Cn1nc(C(F)F)c(C(=O)N(Cc2ccccc2-c2ccc(Cl)s2)C2CC2)c1F` [I.139], the Efficacy was determined as 94% in the series with Puccinia recondita; 100% in the series with Venturia inaequalis; 100% with Pyrenophora teres; 100% with Uromyces appendiculatus; 73% in the series with Alternaria brassicae; 100% in the series with Botrytis cinerea. The compound further gave an Efficacy with Septoria tritici of 96%. Moreover, the log partition coefficient (logP) in series [1] stood at 4.32.
In the case of `Cc1cscc1-c1ccccc1CN(C(=O)c1c(C(F)F)nn(C)c1F)C1CC1` [I.105], the Efficacy in [2] is recorded as 100%; in the series with Puccinia recondita, 100%; in the series on Sphaerotheca fuliginea, 100%; in the series with Pyrenophora teres it was 97%; in the series on Uromyces appendiculatus it was 100%; in the series with Septoria tritici, 80%. The compound also gave a logP in series [1] of 3.90.
As to `Cn1nc(C(F)F)c(C(=O)N(Cc2ccccc2-c2coc3ccccc23)C2CC2)c1F` [I.131], the Efficacy is recorded as 75% with Puccinia recondita; 98% in the series on Sphaerotheca fuliginea; 93% in the series with Pyrenophora teres; 91% with Alternaria brassicae; 100% with Botrytis cinerea; 96% in the series on Septoria tritici. The compound also gave a logP in series [1] of 3.96.
As for `Cn1nc(C(F)F)c(C(=O)N(Cc2cc(F)ccc2-c2coc3ccccc23)C2CC2)c1F` [I.129], the Efficacy in the series with Sphaerotheca fuliginea came to 100%; in the series on Pyrenophora teres it was 86%; in the series on Uromyces appendiculatus, 96%; in the series on Alternaria brassicae, 97%; in the series with Botrytis cinerea it was 92%; in the series with Septoria tritici it was 90%. The compound also showed a log partition coefficient (logP) in series [1] of 4.06.
For the compound `COc1ccsc1-c1ccc(F)cc1CN(C(=O)c1c(C(F)F)nn(C)c1F)C1CC1` [I.119], the Efficacy with Puccinia recondita is recorded as 100%; in the series on Sphaerotheca fuliginea it was 100%; in the series with Pyrenophora teres it was 71%; in the series with Uromyces appendiculatus, 100%; in the series with Septoria tritici, 90%; in the series with Pyricularia oryzae, 70%. In series [1], this compound came in with a logP of 3.63.
Take `Cc1csc(-c2ccc(F)cc2CN(C(=O)c2c(C(F)F)nn(C)c2F)C2CC2)c1` [I.101]: the Efficacy is given as 100% in the series on Puccinia recondita; 100% in the series on Sphaerotheca fuliginea; 95% in the series on Pyrenophora teres; 100% with Uromyces appendiculatus; 83% in the series on Alternaria brassicae; 99% in the series on Botrytis cinerea. Besides, the Efficacy with Septoria tritici is 100%. Besides, in series [1], the logP is 4.09.
Usually chromatographic logP stands for lipophilicity estimated from chromatographic retention. Low values mean a more hydrophilic compound, high ones a more lipophilic compound. As to `Cc1csc(-c2ccccc2CN(C(=O)c2c(C(F)F)nn(C)c2F)C2CC2)c1` [I.100, N-cyclopropyl-3-(difluoromethyl)-5-fluoro-1-methyl-N-[2-(4-methyl-2-thienyl)benzyl]-1H-pyrazole-4-carboxamide], the Efficacy worked out at 100% in series [2]; 100% in the series with Puccinia recondita; 83% in the series with Leptosphaeria nodorum; 95% in the series on Pyrenophora teres; 100% in the series on Uromyces appendiculatus; 80% in the series with Botrytis cinerea. In the series on Septoria tritici, this compound displayed an Efficacy of 100%. In addition, the pest or weed control at 500 ppm in the series on Sphaerotheca fuliginea came out at 100%. Besides, the chromatographic logP in series [1] came out at 3.99.
Regarding `Cn1nc(C(F)F)c(C(=O)N(Cc2cc(Cl)ccc2C2(C)CO2)C2CC2)c1F` (centres unmarked) [I.4, N-[5-chloro-2-(2-methyloxiran-2-yl)benzyl]-N-cyclopropyl-3-(difluoromethyl)-5-fluoro-1-methyl-1H-pyrazole-4-carboxamide], the Efficacy is given as 94% in [2]; 98% in the series with Puccinia recondita; 80% in the series with Leptosphaeria nodorum; 100% in the series with Venturia inaequalis; 96% with Pyrenophora teres; 100% in the series with Uromyces appendiculatus. The compound also gave an Efficacy in the series with Septoria tritici of 100%. For the same compound, in the series on Sphaerotheca fuliginea, the pest or weed control at 500 ppm was 100%. In addition, in [1], the chromatographic logP came out at 3.19.
In the case of `Cn1nc(C(F)F)c(C(=O)N(Cc2cc(F)ccc2-c2ccsc2Cl)C2CC2)c1F` [I.136], the Efficacy is 98% in the series with Puccinia recondita; 100% in the series with Sphaerotheca fuliginea; 86% with Pyrenophora teres; 100% in the series with Uromyces appendiculatus; 70% in the series with Alternaria brassicae; 93% in the series with Septoria tritici. In series [1], this compound yielded a log partition coefficient (logP) of 4.04.
